# pIC50: −log10 of the molar value. “Also recorded” adds a separate entry of the source. Like-named read-outs stand apart in the source and are kept apart here.
# Tests used:
# [1] = system: lipoxygenase and cyclooxygenase; test: lipoxygenase and cyclooxygenase metabolites with exogenous arachidonic acid; format: cell-based; settings: exogenous arachidonic acid added
# Description: The comparison is to MK 592, a selective lipoxygenase inhibitor.
# basophils = test: histamine release from basophils (anti-human IgE, diluted blood); format: cell-based
# Description: The protocol to evaluate the effects of PX-18 on histamine release is described below. Freshly drawn heparinized blood from donors non-medicated for 3 days is diluted 1:5 with PBS containing 1% human serum albumin (diluent). Test drugs are diluted in diluent to 10 times final concentration, and 25 μl per well is added to duplicate wells of round-bottomed microtiter plates. Generally 3-fold dilutions of drug are examined four or five times. 200 μl of diluted blood is then added to each well. 5 minutes later, […] of rabbit anti-human IgE (purchased from Dako) is added per well, to give final concentrations of 1/400 and 1/1200 of antibody. Unstimulated (background release wells) have 25 μl of diluent added. Plates are gently tapped for mixing, then incubated for 30 minutes. After incubation, plates are cooled on ice, spun down in a refrigerated centrifuge, and replaced on ice. 100 μl plasma is removed from each well for assay, and placed in a 1.5 ml Eppendorf tube containing acetylation reagent. Following acetylation, the histamine adduct is quantitated by a sensitive and specific commercial competitive assay, utilizing the competition of enzyme conjugated acetyl-histamine with sample analyte for binding to a specific antibody on the solid phase. A sample of blood is also lysed by repeated freeze/thaw to determine total blood histamine. Results are expressed as a percentage of total blood histamine release. In an acceptable assay maximal release is greater than 45% and background release is less than 15%. Experiments are performed in duplicate or triplicate using separate blood donors.
# cyclooxygenase I = test: whole blood eicosanoid release, ionophore stimulation; format: cell-based, human; settings: 20 uM A23187, 30 minutes
# Description: (§1) The following protocol was employed to evaluate effects of PX-18 on production of leukotrienes and prostaglandins by blood cells under basal conditions, with ionophore stimulation of cyclooxygenase type I, and with lipopolysaccharide (LPS) induction of cyclooxygenase type II. Freshly-obtained heparinized blood from medication-free donors is diluted 1:1 with RPMI, and aliquoted in 0.6 ml amounts in sterile polypropylene 12×75 […] tubes. Test drugs are added at appropriate concentrations and diluted in saline with 1% human serum albumin. Control tubes have only diluent or drug vehicle added. Drugs are added five minutes prior to addition of stimulus, at 100×concentrations, (6 μl volumes). This is replicated for 3 racks of tubes, A thru C. A has no stimulus added, and has a 30 minute and 6 hr. tube for each drug concentration. B has 20 uM of the calcium ionophore A23187 added, and is incubated at 37° C. for 30 minutes. C has 5 ug/ml of E. coli strain Bort LPS added, and is incubated at 37° C. for 6 hours. At the end each time period, the appropriate tubes are placed on ice, centrifuged, and 0.4 ml of plasma carefully decanted into a tube containing formic acid and BHT to stop all reactions and preserve eicosanoid products. These tubes are then frozen at −70° C. for up to one week, then applied to Sep-pac mini columns and extracted into methanol. […]
# [2] = system: drug-resistant P. falciparum strains; test: growth of the same drug-resistant P. falciparum strains (PX-18); format: cell-based, Plasmodium falciparum; settings: for IC50: two strains as described above, which value for which strain not stated
# [3] = system: basal production of prostaglandins; test: whole blood eicosanoid release, basal; format: cell-based, human; settings: no stimulus
# Description: as §1
# cyclooxygenase II = test: whole blood eicosanoid release, LPS induction; format: cell-based, human; settings: 5 ug/ml E. coli LPS, 6 hours, 37° C.
# Description: as §1
# [4] = target: T1, purified human disc type II, PLA2 (Homo sapiens, UniProt P14555); test: inhibition of purified human disc type II PLA2; format: biochemical
# T1 construct: the purified human disc type II, PLA2; from tissue; host or cells: human vertebral (herniated) disc
# T1 sequence (P14555 21-144): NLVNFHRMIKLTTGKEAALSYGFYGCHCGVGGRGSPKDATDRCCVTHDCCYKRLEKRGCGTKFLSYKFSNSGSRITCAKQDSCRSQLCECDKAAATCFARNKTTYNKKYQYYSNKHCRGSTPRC
# Description: Both PX-13 and PX-18 inhibit the purified human disc type II, PLA2. PLA2 activity was measured as described in Franson et al., Prostaglandins, Leukotrienes and Essential Fatty Acids, 43:63-70, 1991, which is herein incorporated by reference in its entirety.
# pancreatin = test: degradation in vitro by pancreatin; format: in vitro ADME; settings: commercial pancreatic enzyme preparation (Sigma)
# Description: The compounds of the present invention are not generally hydrolyzed by pancreatic enzymes and are different from glycerol-based compounds in terms of their chemistry and metabolism. […] The resistance of PX-13 and PX-18 to metabolism by pancreatic enzymes supports their stability after oral administration.
# [5] = system: lipoxygenase products such as LTC4; test: whole blood production of lipoxygenase products; format: cell-based, human; settings: comparison to MK 592
# Description: as §1
# small bowel graft = test: small bowel transplantation ischemia-reperfusion injury; format: in vivo, rat
# Description: (§2) These drugs were also tested for their ability to enhance the preservation of tissues stored for subsequent transplantation. The small bowel was removed from rats, washed free of luminal contents and the tissue stored in University of Wisconsin (UW) preservative media ±40 uM PX-13 or mepacrine for 48 hrs. The graft was then transplanted into rats with or without intravenous (IV) infusion of 20 mg/kg PX-13 or mepacrine at the time of transplantation.
# [6] = peroxidation (malondialdehyde formation) of homogenized rat bowel
# Description: as §2, with “of transplantation. Upon transplantation, the bowel is immediately injured as evidenced by tissue darkening within two minutes. […] Both PX-13 and mepacrine inhibit the peroxidation (malondialdehyde formation) of homogenized rat bowel, an indication that the membrane-stabilizing, PLA2-inhibitors, also have anti-oxidant activity.” for “of transplantation.”
# [7] = small bowel storage in perfusate solution, tissue weight; set-up: species or system rat; settings: 24 and 48 hours in the perfusate solution
# Description: These drugs were also tested for their ability to enhance the preservation of tissues stored for subsequent transplantation. […] The graft was then transplanted into rats with or without intravenous (IV) infusion of 20 mg/kg PX-13 or mepacrine at the time of transplantation.
# [8] = system: PLA2 activity in extracts of rat bowel; test: PLA2 activity in extracts of rat bowel; format: biochemical
# [9] = system: larval forms of an animal filarid; test: molting of larval forms of a filarid
# Description: Infections caused by parasites constitute a major public health problem throughout the world for humans and animals, annually resulting in significant incidence of disease, suffering and death. Parasites such as those that cause malaria and other protozoal parasites of animals and humans are especially troublesome.
# human blood cells = test: preservation of whole blood (LDH and hemoglobin release); format: cell-based; settings: 20 uM
# Description: The effect of PX-13 and mepacrine on whole blood cell viability were tested as a function of time of storage.
# Heparinized human blood was centrifuged at 400×g and the resulting plasma was removed and replaced with an equal volume of Dulbecco's medium. The resuspended cells were then incubated at 37° C. for 0-72 hrs. in a shaking water bath. At the indicated times, a 0.8 ml aliquot was removed and centrifuged at 400×g to sediment cells. Appearance of lactate dehydrogenase (LDH) and hemoglobin in the supernate was indicative of cell injury. PX-13 and mepacrine stabilized cells and decreased the injury as evidenced by diminished levels of LDH and hemoglobin in the supernate. This is expressed as percent protection.
smiles,measurement,setting,value
"CCCCCCCC/C=C\CCCCCCCC(=O)OCCN(CCOC(=O)CCCCCCC/C=C\CCCCCCCC)CCS(=O)(=O)O [PX-18, 2-[N,N-Bis(2-oleoyloxyethyl)amino]-1-ethanesulfonic acid]",production of lipoxygenase and cyclooxygenase metabolites,[1],does not inhibit
same,efficacy relative to cromolyn,basophils,more efficacious than cromolyn
same,potency relative to epinephrine,basophils,equipotent to epinephrine
same,degranulation of basophils,basophils; stimulus antibody to surface-bound IgE,inhibits
same,inhibition of constitutive cyclooxygenase I,cyclooxygenase I,less inhibition
same,effectiveness relative to PX-13,[2],10 times
same,IC50,"[2]; Plasmodium falciparum, read-out: IC50",1.3 mg/L
same,IC50,[2],2.4 mg/L
same,inhibition of basal production of prostaglandins,[3],even less or no inhibition
same,inhibition of cytokine-inducible cyclooxygenase II,cyclooxygenase II,strongly inhibit
same,pIC50,[4],6.52
same,degradation in vitro by pancreatin,pancreatin,resistant to degradation
same,production of lipoxygenase products such as LTC4,[5],inhibited
"CCN(CC)CCCC(C)Nc1c2ccc(Cl)cc2nc2ccc(OC)cc12 (centres unmarked) [mepacrine, reference compound]",gross and microscopic injury to tissue,"small bowel graft; 40 uM in UW media 48 hrs, with or without 20 mg/kg IV at transplantation",dramatically reduced
same,protection against ischemia and reperfusion injury,small bowel graft; small bowel transplantation,protect; also recorded: some protection although not as great as with PX-13
same,peroxidation (malondialdehyde formation),[6],inhibit
same,weight of the tissues after storage,[7],reduced weight
same,inhibition of PLA2 activity,[8],inhibited
same,molting of larval forms,[9],significantly reduced
same,Percent Protection Hemoglobin,human blood cells; 48 hr,61%
same,Percent Protection LDH,"human blood cells; 48 hr, 37° C.",58%
same,Percent Protection Hemoglobin,human blood cells; 72 hr,45%
same,Percent Protection LDH,human blood cells; 72 hr,27%

# Source: patent publication US6423855B1, “Cytoprotective compounds” (Virginia Commonwealth University, priority 1996, dated 2002)
